Patent publication US9145415B2, “Nitrogen-containing heterocyclic compound or salt thereof” (FUJIFILM Corporation, priority 2012, dated 2015)
Like-named read-outs stand apart in the source and are kept apart here.

How the values were obtained:
Molm-13 cells = assay: Leukemia cell proliferation inhibition test (ATPlite), Molm-13; type: cell-based; settings: Homo sapiens, read-out: MOLM13 cell proliferation inhibition effect
How it was run: (§1)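 Proliferation inhibition is quantified from total cellular ATP, measured by luciferase luminescence, after cells grow with compound for 72 hours. The GI50 is the concentration giving half the signal of the 0.1% DMSO control, fitted to a sigmoid curve from duplicate points.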

MV4-11 cells = assay: Leukemia cell proliferation inhibition test (ATPlite), MV4-11; type: cell-based; settings: Homo sapiens, read-out: MV4-11 cell proliferation inhibition effect
How it was run: as §1

[1] = biological target: T1, human FLT3 protein (FLT3 (WT)) (Homo sapiens, UniProt P36888); assay: FLT3 inhibition test (FLT3 enzyme inhibition, time-resolved fluorescence of substrate peptide phosphorylation); type: biochemical; settings: read-out: FLT3 (WT) enzyme inhibition activity
T1 construct: human FLT3 protein (intracellular region, 564 to 993 aa); GST; purchased Carna Biosciences; host or cells: baculovirus expression system
T1 sequence (P36888 564-993): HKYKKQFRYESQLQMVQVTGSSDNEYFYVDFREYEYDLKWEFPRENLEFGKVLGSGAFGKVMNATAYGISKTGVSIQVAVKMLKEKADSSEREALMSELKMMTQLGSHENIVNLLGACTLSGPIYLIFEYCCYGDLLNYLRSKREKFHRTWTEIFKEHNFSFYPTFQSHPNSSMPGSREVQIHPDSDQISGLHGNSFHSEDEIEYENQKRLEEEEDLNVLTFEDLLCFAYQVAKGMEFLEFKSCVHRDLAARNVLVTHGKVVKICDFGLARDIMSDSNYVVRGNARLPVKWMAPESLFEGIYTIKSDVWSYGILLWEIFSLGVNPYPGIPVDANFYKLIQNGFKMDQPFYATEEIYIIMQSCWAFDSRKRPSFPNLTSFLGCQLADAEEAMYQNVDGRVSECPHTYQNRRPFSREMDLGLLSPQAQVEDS
How it was run: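 Wild-type human FLT3 (1.2 μg) pre-incubated with compound 15 min at 25° C in 100 mM HEPES pH 7.5, 10 mM MgCl2, 25 mM NaCl, 1 mM DTT. Reaction started with substrate peptide and ATP (final 50 μM), run 30 min at 25° C; phosphorylation read by time-resolved fluorescence.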

[2] = MOLM-13, 72 h, Molm-13, 72 hours culture, ATPlite, GI50 per method
[3] = MV4-11, 72 h, MV4-11, 72 hours culture, ATPlite, GI50 per method
[4] = GST-fused human FLT3 (564 to 993 aa), ATP 50 μM

Compound	IC50 (Molm-13 cells; [2])	IC50 (MV4-11 cells; [3])	IC50 [1, 4]	IC50 (Molm-13 cells; MOLM-13, MOLM13 cell)	IC50 (MV4-11 cells; MV4-11, MV4-11 cell)	IC50 ([1]; FLT3 (WT))
CN(C)C/C=C/C(=O)N(C)CC(=O)NCCCC#Cc1cnc(Nc2ccc(F)cc2)nc1NCCCF [Compound 10-21]	< 0.01 µM	< 0.01 µM	< 0.01 µM			
C=CC(=O)NC(C)(C)C(=O)Nc1cccc(NC(=O)c2cnc(NCCc3ccncc3)nc2NCCC)c1 [Compound 2-4]	0.01 to 0.1 µM	< 0.01 µM	< 0.01 µM			
C[C@@H](C(=O)NCCCC#Cc1cnc(Nc2cccc(F)c2)nc1N1CCOCC1)N(C)C(=O)/C=C/CN(C)C [Compound 10-5, (S,E)-4-(Dimethylamino)-N-(1-((5-(2-((3-fluorophenyl)amino)-4-morpholinopyrimidin-5-yl)-4-pentyn-1-yl)amino)-1-oxopropan-2-yl)-N-methyl-2-butenamide]	< 0.01 µM	< 0.01 µM	< 0.01 µM			
CN(C)C/C=C/C(=O)N(C)CC(=O)NCCCC#Cc1cnc(Nc2ccc(F)nc2)nc1NCC(F)(F)F [Compound 10-36]	< 0.01 µM	< 0.01 µM	< 0.01 µM			
CC[C@@H](C(=O)NCCCC#Cc1cnc(Nc2ccc(F)nc2)nc1Nc1cccc(F)c1)N(C)C(=O)/C=C/CN(C)C [Compound 10-32]	< 0.01 µM	< 0.01 µM	< 0.01 µM			
CCCCCN(CC(=O)NCCCC#Cc1cnc(Nc2ccc(C#N)cc2)nc1NCCC)C(=O)/C=C/CN(C)C [Compound 7-71]	< 0.01 µM	< 0.01 µM	< 0.01 µM			
CCCN(C)c1nc(Nc2ccc(C(=O)NC)cc2)ncc1C#CCCCNC(=O)[C@H](C)N(C)C(=O)/C=C/CN(C)C [Compound 9-9]	< 0.01 µM	< 0.01 µM	< 0.01 µM			
C[C@@H](C(=O)NCCCC#Cc1cnc(Nc2ccc(C#N)cc2)nc1N1CCC(F)(F)C1)N(C)C(=O)/C=C/CN(C)C [Compound 10-42]	< 0.01 µM	< 0.01 µM	< 0.01 µM			
C=CC(=O)NCC(=O)NC1CCCC(NC(=O)c2cnc(Nc3ccc(C(N)=O)cc3)nc2NCCC)C1 (stereo not drawn) [Compound 3-2]	0.01 to 0.1 µM	0.01 to 0.1 µM	< 0.01 µM			
CCCNc1nc(Nc2cccc(F)c2)ncc1C#CCCCNC(=O)CN(C)C(=O)/C=C/CN(C)C [Compound 7-24, (E)-4-(Dimethylamino)-N-(2-((5-(2-((3-fluorophenyl)amino)-4-(propylamino)pyrimidin-5-yl)-4-pentyn-1-yl)amino)-2-oxoethyl)-N-methyl-2-butenamide]	< 0.01 µM	< 0.01 µM	< 0.01 µM			
CCCNc1nc(Nc2cccc(F)c2)ncc1C#CCCCNC(=O)[C@H](CC(C)C)N(C)C(=O)/C=C/CN(C)C [Compound 7-11]	0.01 to 0.1 µM	0.01 to 0.1 µM	< 0.01 µM			
CCCN(C)c1nc(Nc2cccc(C#N)c2)ncc1C#CCCCNC(=O)[C@H](C)N(C)C(=O)/C=C/CN(C)C [Compound 9-3]	0.01 to 0.1 µM	< 0.01 µM	< 0.01 µM			
COCCCNc1nc(Nc2ccc3cnn(C)c3c2)ncc1C#CCCCNC(=O)[C@H](C)N(C)C(=O)/C=C/CN(C)C [Compound 10-59]	< 0.01 µM	< 0.01 µM	< 0.01 µM			
CCCN(C)c1nc(Nc2ccnc(F)c2)ncc1C#CCCCNC(=O)[C@H](C)N(C)C(=O)/C=C/CN(C)C [Compound 9-10]	< 0.01 µM	< 0.01 µM	< 0.01 µM			
COCCCNc1nc(Nc2ccc3cn[nH]c3c2)ncc1C#CCCCNC(=O)[C@@H]1CCCN1C(=O)/C=C/CN(C)C [Compound 10-71]	< 0.01 µM	< 0.01 µM	< 0.01 µM			
CCCNc1nc(Nc2cccc(F)c2)ncc1C#CCCCNC(=O)[C@@H]1CC(F)(F)CN1C(=O)/C=C/CN(C)C [Compound 7-53]	< 0.01 µM	< 0.01 µM	0.01 to 0.1 µM			
CN(C)C/C=C/C(=O)N1CCC[C@H]1C(=O)NCCCC#Cc1cnc(Nc2ccc3[nH]ncc3c2)nc1NC1CC1 [Compound 10-74]	< 0.01 µM	< 0.01 µM	< 0.01 µM			
C[C@@H](C(=O)NCCCC#Cc1cnc(Nc2ccnc(F)c2)nc1NCCCF)N(C)C(=O)/C=C/CN(C)C [Compound 9-17]	< 0.01 µM	< 0.01 µM	< 0.01 µM			

Other lines, results leading:

IC50 (Molm-13 cells; [2])	IC50 (MV4-11 cells; [3])	IC50 [1, 4]	IC50 (Molm-13 cells; MOLM-13, MOLM13 cell)	IC50 (MV4-11 cells; MV4-11, MV4-11 cell)	IC50 ([1]; FLT3 (WT))	Compound
			0.01 to 0.1 µM	< 0.01 µM	< 0.01 µM	CCCNc1nc(Nc2cncc(F)c2)ncc1C#CCCCNC(=O)[C@H](C)N(C)C(=O)/C=C/CN(C)C [Compound 22-8]
			< 0.01 µM	< 0.01 µM	< 0.01 µM	CNc1nc(Nc2ccc(C#N)cc2)ncc1C#CCCCNC(=O)[C@@H]1CCCN1C(=O)/C=C/CN(C)C [Compound 21-45]
< 0.01 µM	< 0.01 µM	< 0.01 µM				CCCNc1nc(Nc2ccc(C#N)cc2)ncc1C#C[C@H]1C[C@@H](NC(=O)[C@H](C)N(C)C(=O)/C=C/CN(C)C)C1 [Compound 13-9]
			< 0.01 µM	< 0.01 µM	< 0.01 µM	CCCNc1nc(Nc2cnc3[nH]nc(OC)c3c2)ncc1C#CCCCNC(=O)[C@H](C)N(C)C(=O)/C=C/CN(C)C [Compound 22-66]
< 0.01 µM	< 0.01 µM	< 0.01 µM				CC(C)Oc1nc(Nc2cccc(F)c2)ncc1C#C[C@@H]1CCC[C@H](NC(=O)[C@H](C)N(C)C(=O)/C=C/CN(C)C)C1 [Compound 21-21]
			< 0.01 µM	< 0.01 µM	< 0.01 µM	CNc1ncc(C#C[C@@H]2CCC[C@H](NC(=O)[C@H](C)N(C)C(=O)/C=C/CN(C)C)C2)c(NCc2ccccc2)n1 [Compound 21-39]
< 0.01 µM	< 0.01 µM	< 0.01 µM				CCCNc1nc(Nc2ccc(F)nc2)ncc1C#C[C@@H]1CCC[C@H](NC(=O)[C@H](C)N(C)C(=O)/C=C/CN(C)C)C1 [Compound 13-5]
< 0.01 µM	< 0.01 µM	< 0.01 µM				CCNc1nc(Nc2ccc(C#N)cc2)ncc1C#C[C@@H]1CCC[C@H](NC(=O)[C@H](C)N(C)C(=O)/C=C/CN(C)C)C1 [Compound 21-28]
			< 0.01 µM	< 0.01 µM	< 0.01 µM	CCCNc1nc(Nc2ccc3c(F)nn(C)c3c2)ncc1C#CCCCNC(=O)[C@@H]1CCCN1C(=O)/C=C/CN(C)C [Compound 22-59]
			< 0.01 µM	< 0.01 µM	< 0.01 µM	CCCNc1nc(Nc2ccc3cn[nH]c3c2)ncc1C#CCCCNC(=O)[C@H](C)N(C)C(=O)/C=C/CN(C)C [Compound 21-53, (S,E)-N-(1-((5-(2-((1H-indazol-6-yl)amino)-4-(propylamino)pyrimidin-5-yl)-4-pentyn-1-yl)amino)-1-oxopropan-2-yl)-4-(dimethylamino)-N-methyl-2-butenamide]
			0.01 to 0.1 µM	0.1 to 1 µM	0.01 to 0.1 µM	CCCNc1nc(Nc2ccc3nc(C)ccc3c2)ncc1C#CCCCNC(=O)[C@H](C)N(C)C(=O)/C=C/CN(C)C [Compound 22-5]
			< 0.01 µM	< 0.01 µM	< 0.01 µM	CCCNc1nc(Nc2ccc3c(OC)nn(C)c3c2)ncc1C#CCCCNC(=O)[C@@H]1CCCN1C(=O)/C=C/CN(C)C [Compound 22-42]
< 0.01 µM	< 0.01 µM	< 0.01 µM				CC(C)Oc1nc(Nc2ccc(C#N)cc2)ncc1C#C[C@@H]1CCC[C@H](NC(=O)[C@H](C)N(C)C(=O)/C=C/CN(C)C)C1 [Compound 21-22]
			< 0.01 µM	< 0.01 µM	< 0.01 µM	CNc1nc(Nc2ccc(F)cc2)ncc1C#CCCCNC(=O)[C@@H]1CCCN1C(=O)/C=C/CN(C)C [Compound 21-43]
